Each structure is given as a SMILES string.

Data set [1] can be described thus: Metabolic stability in mouse liver microsomes after 30 min. Type of data set: ADME, Microsome. Background: Liver microsomes are vesicles of endoplasmic reticulum, rich in cytochrome P450 enzymes.
Data set [2] in a line: Metabolic stability in mouse serum after 6 hrs. Type of data set: ADME, cell-free.
A short description of data set [3]: Cytotoxicity against MCA cells. It counts as cell-based.
A short description of data set [4]: Cytotoxicity against MCA-TK cells. It counts as cell-based.

Take `O=c1[nH]c(=O)n([C@H]2C[C@H](O)[C@@H](CO)O2)cc1I` [IDOXURIDINE]: the half-life in data set [1] is 1.24 h; in data set [2], 22.6 h.

On to `Nc1nc2c(ncn2COC(CO)CO)c(=O)[nH]1` [GANCICLOVIR], for which the results for the concentration for half-maximal inhibition (IC50) in data set [3] and in data set [4] were 270 µM and 0.15 µM, respectively.

What is called half-life is how long it takes for the measured level to halve. Lower therefore signals rapid decline. As a reminder, the IC50 is the concentration that gives 50% inhibition. A high value points to weaker potency.

Source of the values: ChEMBL document CHEMBL1138268, “Synthesis and evaluation of cis-1-[4-(hydroxymethyl)-2-cyclopenten-1-yl]-5-[(124)I]iodouracil: a new potential PET imaging agent for HSV1-tk expression” (J Med Chem, 2007).
